One experiment has as its target T1, BRD4 BD1 (Homo sapiens, UniProt O60885).
T1 construct: made in house
Put plainly: AlphaScreen binding assay, BRD4 Bromodomain 1. The method in brief:
(§1)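 Compound dilution series were mixed with His-tagged BRD4 bromodomain and biotinylated tetra-acetylated H4 (1-21) peptide at pH 7.3 (BD1 and peptide at 50 nM, BD2 and peptide at 100 nM). Donor and acceptor beads were then added, and plates were equilibrated at least 1 h before reading. IC50 values were fitted with a four-parameter logistic model.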
For orientation: In Alpha technology, singlet oxygen from a donor bead excites a nearby acceptor bead.

For the next experiment, the target named is T2, BRD4 BD2 (Homo sapiens, UniProt O60885).
T2 construct: made in house
Put plainly: AlphaScreen binding assay, BRD4 Bromodomain 2. The method in brief: as §1

In a further experiment the test system is MV4-11 cells. The experiment is described as follows: Oncology cell growth assay (3-day proliferation, CellTiter-Glo). The format is cell-based. To be noted: Homo sapiens, MV4-11, 72 h, AML cell line MV4-11, 72 hours, compounds grouped by IC50 range, read-out: MV4-11 IC50 (inhibition of proliferation, gIC50). The method in brief: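 72 h, 37° C, 5% CO2; MV4-11, 3000 cells/well, RPMI 1640 + 10% FBS. Compound final 10, 3.3, 1.1, 0.37, 0.12, 0.041, 0.013, 0.0045 μM. Readout CellTiter-Glo luminescence; gIC50 by 4-parameter logistic fit, normalised to DMSO and no-cell background.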

Each structure is given as a SMILES string. pIC50: −log10 of the molar value. Some results are limits rather than exact numbers.

In the case of `CC(=O)N1c2ccc(-c3ccc(N(C)S(C)(=O)=O)cc3)cc2N(C(=O)Oc2ccccn2)C[C@@H]1C` [Example I-1330], the pIC50 at BRD4 BD1 is 6.00 to 7.00; on BRD4 BD2, 6.30 to 7.30; in the experiment with MV4-11 cells it was 6.30 to 7.00.

Take `CC(=O)N1c2ccc(-c3cccc(C(=O)N(C)C)c3)cc2N(C(=O)c2ccco2)C[C@@H]1C` [Example I-848]: the values for the pIC50 on BRD4 BD1, on BRD4 BD2 and with MV4-11 cells were 6.00 to 7.00, above 7.30 and 6.30 to 7.00, respectively.

`CC(=O)N1c2ccc(-c3cnn(C4CC4)c3)cc2N(C(=O)Oc2cccc(C(F)(F)F)c2)C[C@@H]1C` [Example I-259]: the pIC50 at BRD4 BD1 was 5.00 to 6.00; on BRD4 BD2, above 7.30; in the experiment with MV4-11 cells it was 6.30 to 7.00.

Take `COc1ccc(-c2ccc3c(c2)N(C(=O)OC2CCCCC2)C[C@H](C)N3C(C)=O)cc1NS(C)(=O)=O` [Example I-1271]: the pIC50 on BRD4 BD1 was 6.00 to 7.00; on BRD4 BD2, 6.30 to 7.30; with MV4-11 cells, above 7.00.

Take `CC(=O)N1c2ccc(-c3cnn(CC4CC4)c3)cc2N(C(=O)OC(C)C)C[C@@H]1C` [Example I-308]: the pIC50 at BRD4 BD1 is 6.00 to 7.00; on BRD4 BD2, 6.30 to 7.30; in the experiment on MV4-11 cells it was 6.30 to 7.00.

Turning to `CC(=O)N1c2ccc(-c3ccc(N4CCN(C)CC4)cc3)cc2N(C(=O)c2ccco2)C[C@@H]1C` [Example I-874], the values for the pIC50 at BRD4 BD1, at BRD4 BD2 and with MV4-11 cells were 6.00 to 7.00, above 7.30 and 6.30 to 7.00, respectively.

Take `CC(=O)N1c2ccc(-c3ccc(N4CCCC4=O)cc3)cc2N(C(=O)OC(C)C)C[C@@H]1C` [Example I-1134]: the pIC50 at BRD4 BD1 was 6.00 to 7.00; on BRD4 BD2 it was 6.30 to 7.30; with MV4-11 cells it was 6.30 to 7.00.

As for `CC(=O)N1c2ccc(-c3ccc(S(C)(=O)=O)c(F)c3)cc2N(C(=O)C2CC2)C[C@@H]1C` [Example I-1082], the values for the pIC50 on BRD4 BD1, at BRD4 BD2 and in the experiment on MV4-11 cells were 5.00 to 6.00, 6.30 to 7.30 and below 6.30, respectively.

As for `CC(=O)N1c2ccc(-c3cccc(-c4ccccc4)c3)cc2N(C(=O)COc2ccccc2)C[C@@H]1C` [Example I-792], the pIC50 at BRD4 BD1 is below 5.00; on BRD4 BD2 it was 6.30 to 7.30; in the experiment on MV4-11 cells it was below 6.30.

For the compound `CC(=O)N1c2ccc(-c3ccc(S(C)(=O)=O)cc3)cc2N(C(=O)c2cc3cnccc3[nH]2)CC1C` (stereo not drawn) [Example I-778], the figures for the pIC50 on BRD4 BD1, at BRD4 BD2 and in the experiment with MV4-11 cells were 5.00 to 6.00, 6.30 to 7.30 and below 6.30, respectively.

As to `CC(=O)N1c2ccc(-c3cccc(S(=O)(=O)N(C)C)c3)cc2N(C(=O)OC(C)C)C[C@@H]1C` [Example I-1049], the pIC50 on BRD4 BD1 is 5.00 to 6.00; at BRD4 BD2, 6.30 to 7.30; in the experiment with MV4-11 cells, 6.30 to 7.00.

As for `CC(=O)N1c2ccc(-c3cnn(C4CC4)c3)cc2N(C(=O)OC(C)C)C[C@@H]1C` [Example I-22, (S)-isopropyl 4-acetyl-7-(1-cyclopropyl-1H-pyrazol-4-yl)-3-methyl-3,4-dihydroquinoxaline-1(2H)-carboxylate], the pIC50 is 6.00 to 7.00 on BRD4 BD1, 6.30 to 7.30 at BRD4 BD2 and above 7.00 with MV4-11 cells.

With `CC(=O)N1c2ccc(-c3ccc(N(C)S(C)(=O)=O)cc3)cc2N(C(=O)Oc2cccnc2)C[C@@H]1C` [Example I-1292], the pIC50 on BRD4 BD1 is 6.00 to 7.00; on BRD4 BD2, 6.30 to 7.30; with MV4-11 cells, 6.30 to 7.00.

Turning to `CCS(=O)(=O)Nc1cccc(-c2ccc3c(c2)N(C(=O)OC2CCCCC2)C[C@H](C)N3C(C)=O)c1` [Example I-1227], the pIC50 at BRD4 BD1 was 6.00 to 7.00; at BRD4 BD2, 6.30 to 7.30; in the experiment on MV4-11 cells, 6.30 to 7.00.

For the compound `CC(=O)N1c2ccc(-c3cnn(C4CC4)c3)cc2N(C(=O)Oc2cccc3ccccc23)C[C@@H]1C` [Example I-265], the values for the pIC50 on BRD4 BD1, at BRD4 BD2 and in the experiment on MV4-11 cells were 5.00 to 6.00, above 7.30 and below 6.30, respectively.

In the case of `CC(=O)N1c2ccc(-c3ccc(C4(O)COC4)cc3)cc2N(C(=O)OC(C)C)C[C@@H]1C` [Example I-473], the figures for the pIC50 on BRD4 BD1, on BRD4 BD2 and in the experiment with MV4-11 cells were 6.00 to 7.00, 6.30 to 7.30 and 6.30 to 7.00, respectively.

Take `CC(=O)N1c2cc(Br)c(-c3ccc(S(C)(=O)=O)cc3)cc2N(C(=O)OC(C)C)C[C@@H]1C` [Example I-217, Isopropyl (S)-4-acetyl-6-bromo-3-methyl-7-(4-(methylsulfonyl)phenyl)-3,4-dihydroquinoxaline-1(2H)-carboxylate]: the pIC50 at BRD4 BD1 was 5.00 to 6.00; on BRD4 BD2, below 6.30; with MV4-11 cells, below 6.30.

Turning to `CCCS(=O)(=O)c1ccc(-c2ccc3c(c2)N(C(=O)OC2CCCCC2)C[C@H](C)N3C(C)=O)cc1` [Example I-1235], the pIC50 on BRD4 BD1 is 6.00 to 7.00; on BRD4 BD2 it was 6.30 to 7.30; in the experiment on MV4-11 cells it was 6.30 to 7.00.

Take `CC(=O)N1c2ccc(-c3ccc(S(C)(=O)=O)c(F)c3)cc2N(C(=O)C2CCC2)C[C@@H]1C` [Example I-1083]: the figures for the pIC50 at BRD4 BD1, at BRD4 BD2 and in the experiment with MV4-11 cells were 5.00 to 6.00, 6.30 to 7.30 and below 6.30, respectively.

For `CC(=O)N1c2ccc(-c3ccc(S(=O)(=O)CCN)cc3)cc2N(C(=O)OC(C)C)C[C@@H]1C` [Example I-477], the pIC50 on BRD4 BD1 was 6.00 to 7.00; at BRD4 BD2 it was above 7.30; in the experiment with MV4-11 cells it was 6.30 to 7.00.

Regarding `COC(=O)N1c2ccc(-c3cnn(CC(C)(C)O)c3)cc2N(C(=O)Oc2ccc(F)cc2)C[C@@H]1C` [Example I-1023], the pIC50 at BRD4 BD1 was 6.00 to 7.00; at BRD4 BD2, above 7.30; in the experiment with MV4-11 cells it was below 6.30.

Take `CC(=O)N1c2ccc(-c3ccc(C(=O)N4C[C@H]5CCN(C)[C@H]5C4)cc3)cc2N(C(=O)OC(C)C)C[C@@H]1C` [Example I-555]: the pIC50 on BRD4 BD1 is 6.00 to 7.00; at BRD4 BD2, 6.30 to 7.30; in the experiment with MV4-11 cells, above 7.00.

Regarding `COc1ccccc1OC(=O)N1C[C@H](C)N(C(C)=O)c2ccc(-c3ccc(S(C)(=O)=O)cc3)cc21` [Example I-227], the results for the pIC50 at BRD4 BD1, at BRD4 BD2 and with MV4-11 cells were 6.00 to 7.00, above 7.30 and above 7.00, respectively.

For `CC(=O)N1c2ccc(-c3cnn(C4COC4)c3)cc2N(C(=O)OC(C)C)C[C@@H]1C` [Example I-144, (S)-isopropyl 4-acetyl-3-methyl-7-(1-(oxetan-3-yl)-1H-pyrazol-4-yl)-3,4-dihydroquinoxaline-1(2H)-carboxylate], the figures for the pIC50 on BRD4 BD1, on BRD4 BD2 and in the experiment with MV4-11 cells were above 7.00, above 7.30 and 6.30 to 7.00, respectively.

On to `CC(=O)N1c2ccc(-c3ccc(S(=O)(=O)NC(C)(C)C)cc3)cc2N(C(=O)C2CCC2)C[C@@H]1C` [Example I-1128], for which the pIC50 at BRD4 BD1 was 5.00 to 6.00; on BRD4 BD2, 6.30 to 7.30; with MV4-11 cells, 6.30 to 7.00.

In the case of `CC(=O)N1c2ccc(-c3cnn(C4COC4)c3)cc2N(C(=O)OC2CC3CC3C2)C[C@@H]1C` (stereo partly drawn) [Example I-74, (3S)-bicyclo[3.1.0]hexan-3-yl 4-acetyl-3-methyl-7-(1-(oxetan-3-yl)-1H-pyrazol-4-yl)-3,4-dihydroquinoxaline-1(2H)-carboxylate], the pIC50 on BRD4 BD1 is above 7.00; on BRD4 BD2, above 7.30; in the experiment with MV4-11 cells, 6.30 to 7.00.

`CC(=O)N1c2ccc(-c3cccc(NS(C)(=O)=O)c3)cc2N(C(=O)C2CC2)C[C@@H]1C` [Example I-1043]: the figures for the pIC50 at BRD4 BD1, at BRD4 BD2 and in the experiment with MV4-11 cells were 5.00 to 6.00, 6.30 to 7.30 and below 6.30, respectively.

As for `CC(=O)N1c2ccc(-c3ccc4c(c3)N(C)S(=O)(=O)N4)cc2N(C(=O)OC(C)C)C[C@@H]1C` [Example I-1177], the pIC50 was 6.00 to 7.00 on BRD4 BD1, 6.30 to 7.30 on BRD4 BD2 and below 6.30 in the experiment with MV4-11 cells.

Take `COC(=O)N1c2ccc(-c3cnn(CCN4CCOCC4)c3)cc2N(C(=O)OC(C)C)C[C@@H]1C` [Example I-321]: the pIC50 at BRD4 BD1 was 6.00 to 7.00; at BRD4 BD2, 6.30 to 7.30; with MV4-11 cells it was 6.30 to 7.00.

As to `CC(=O)N1c2ccc(-c3ccc(C(=O)N4CC[C@H](O)C4)cc3)cc2N(C(=O)OC(C)C)C[C@@H]1C` [Example I-580], the pIC50 at BRD4 BD1 was 6.00 to 7.00; at BRD4 BD2 it was 6.30 to 7.30; in the experiment with MV4-11 cells, 6.30 to 7.00.

As to `CC(=O)N1c2ccc(-c3cnn(CC4(CO)COC4)c3)cc2N(C(=O)C2CC2)C[C@@H]1C` [Example I-662], the figures for the pIC50 at BRD4 BD1, at BRD4 BD2 and in the experiment on MV4-11 cells were 6.00 to 7.00, 6.30 to 7.30 and below 6.30, respectively.

Turning to `CC(=O)N1c2ccc(-c3ccc(S(=O)(=O)CC(C)C)cc3)cc2N(C(=O)OC(C)C)C[C@@H]1C` [Example I-1081], the figures for the pIC50 at BRD4 BD1, on BRD4 BD2 and with MV4-11 cells were 5.00 to 6.00, 6.30 to 7.30 and below 6.30, respectively.

As for `COC(=O)N1c2ccc(-c3ccc(N4CCS(=O)(=O)CC4)cc3)cc2N(C(=O)C2CC2)C[C@@H]1C` [Example I-455], the pIC50 on BRD4 BD1 is 6.00 to 7.00; at BRD4 BD2 it was 6.30 to 7.30; with MV4-11 cells, 6.30 to 7.00.

For `CC(=O)N1c2ccc(-c3ccc(N4CCCS4(=O)=O)cc3)cc2N(C(=O)Oc2ccccn2)C[C@@H]1C` [Example I-1324], the results for the pIC50 on BRD4 BD1, at BRD4 BD2 and in the experiment with MV4-11 cells were 6.00 to 7.00, above 7.30 and 6.30 to 7.00, respectively.

On to `CC(=O)N1c2ccc(-c3cnn(CCO)c3)cc2N(c2nn(C)c3ccc(F)cc23)C[C@@H]1C` [Example I-189, 1-[(2S)-4-(5-fluoro-1-methyl-1H-indazol-3-yl)-6-[1-(2-hydroxyethyl)-1H-pyrazol-4-yl]-2-methyl-1,2,3,4-tetrahydroquinoxalin-1-yl]ethan-1-one], for which the values for the pIC50 at BRD4 BD1, at BRD4 BD2 and in the experiment with MV4-11 cells were 5.00 to 6.00, 6.30 to 7.30 and 6.30 to 7.00, respectively.

As for `CCS(=O)(=O)Nc1cccc(-c2ccc3c(c2)N(C(=O)C2CC2)C[C@H](C)N3C(C)=O)c1` [Example I-1054], the pIC50 was 5.00 to 6.00 on BRD4 BD1, 6.30 to 7.30 on BRD4 BD2 and 6.30 to 7.00 with MV4-11 cells.

These data come from patent US10703764B2, “Benzopiperazine compositions as BET bromodomain inhibitors” (FORMA Therapeutics, Inc., priority 2013, dated 2020).
